Molecular target: T1, Casein kinase II (Homo sapiens, UniProt P19784+P67870+P68400)
Experiment: Inhibitory concentration was determined towards Casein kinase 2; call rule not given here
Format: protein-complex assay

T1 sequence (P67870 whole entry): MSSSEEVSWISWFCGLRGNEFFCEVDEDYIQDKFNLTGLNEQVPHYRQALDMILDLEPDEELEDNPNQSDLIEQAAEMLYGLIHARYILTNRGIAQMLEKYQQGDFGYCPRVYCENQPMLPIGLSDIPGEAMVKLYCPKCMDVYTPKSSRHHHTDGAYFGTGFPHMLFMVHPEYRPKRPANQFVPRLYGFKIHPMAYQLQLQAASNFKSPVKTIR
T1 sequence (P68400 whole entry): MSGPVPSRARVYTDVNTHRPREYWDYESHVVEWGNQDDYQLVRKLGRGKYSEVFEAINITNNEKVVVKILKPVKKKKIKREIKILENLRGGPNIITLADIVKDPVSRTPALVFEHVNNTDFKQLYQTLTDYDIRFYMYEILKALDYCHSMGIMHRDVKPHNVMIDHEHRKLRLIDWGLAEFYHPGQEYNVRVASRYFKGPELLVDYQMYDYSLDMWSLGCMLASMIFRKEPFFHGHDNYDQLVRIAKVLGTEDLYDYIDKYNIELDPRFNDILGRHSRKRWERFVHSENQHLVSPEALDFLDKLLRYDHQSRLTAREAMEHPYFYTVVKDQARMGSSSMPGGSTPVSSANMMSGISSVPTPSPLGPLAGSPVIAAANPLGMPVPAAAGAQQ
T1 sequence (P19784 whole entry): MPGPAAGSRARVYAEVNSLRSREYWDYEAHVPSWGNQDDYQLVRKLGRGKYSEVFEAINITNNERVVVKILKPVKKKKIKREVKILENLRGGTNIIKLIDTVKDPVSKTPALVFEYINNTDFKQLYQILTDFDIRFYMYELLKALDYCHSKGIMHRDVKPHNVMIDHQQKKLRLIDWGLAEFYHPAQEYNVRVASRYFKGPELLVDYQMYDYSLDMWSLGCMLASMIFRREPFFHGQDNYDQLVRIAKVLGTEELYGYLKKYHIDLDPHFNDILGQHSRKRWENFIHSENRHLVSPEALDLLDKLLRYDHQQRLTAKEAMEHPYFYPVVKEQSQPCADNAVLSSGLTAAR

Row | IC50 [µM] | SMILES
1 | 43 | Oc1cc2cccc[n+]2c2ccccc12 [listing 1 of 2 here]
2 | 900 | O/C(=C/c1ccccn1)c1ccc(Cl)cc1Cl
3 | 130 | O/C(=C/c1ccccn1)c1cccc(Cl)c1Cl
4 | 210 | Oc1cc2cccc[n+]2c2ccc(Cl)cc12
5 | 2500 | O/C(=C/c1ccccn1)c1ccccc1
6 | 110 | Nc1cc2cccc[n+]2c2ccccc12 [listing 1 of 2 here]
7 | 100 | Nc1cc2cccc[n+]2c2ccccc12 [listing 2 of 2 here]
8 | 24 | Nc1cc2cccc[n+]2c2cc(Cl)ccc12
9 | 50 | Nc1cc2cccc[n+]2c2c(Cl)cccc12
10 | 1200 | O/C(=C/c1ccccn1)c1ccccc1Cl
11 | 84 | Nc1cc2cccc[n+]2c2cccc(Cl)c12
12 | 18 | Oc1cc2cccc[n+]2c2cccc(Cl)c12
13 | 50 | Oc1cc2cccc[n+]2c2ccccc12 [listing 2 of 2 here]
14 | 580 | O/C(=C/c1ccccn1)c1c(Cl)cccc1Cl
15 | 820 | O/C(=C/c1ccccn1)c1ccccc1Br
16 | 39 | Oc1cc2cccc[n+]2c2cc(Cl)ccc12

Molecular target: Protein kinase C (PKC)
Experiment: Inhibition of protein kinase C
Format: protein assay

Row | IC50 [µM] | SMILES
17 | 38 | Oc1cc2cccc[n+]2c2c(Cl)cccc12.[Cl-]

Molecular target: T1, Casein kinase II
Experiment: Inhibition of casein kinase II
Format: protein-complex assay

Row | IC50 [µM] | SMILES
18 | 5 | Oc1cc2cccc[n+]2c2c(Cl)cccc12.[Cl-]

Molecular target: Cyclin-dependent kinase 1 (Homo sapiens, UniProt P06493)
Sequence (P06493 whole entry): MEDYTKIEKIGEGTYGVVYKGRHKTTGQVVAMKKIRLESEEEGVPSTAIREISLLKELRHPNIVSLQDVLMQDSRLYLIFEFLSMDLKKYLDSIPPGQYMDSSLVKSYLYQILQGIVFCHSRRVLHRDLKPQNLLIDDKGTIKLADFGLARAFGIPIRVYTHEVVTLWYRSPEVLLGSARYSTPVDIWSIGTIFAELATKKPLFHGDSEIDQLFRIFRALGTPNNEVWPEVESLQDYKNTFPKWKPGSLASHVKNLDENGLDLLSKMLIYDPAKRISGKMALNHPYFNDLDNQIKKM
Experiment: Inhibition of cyclin-dependent kinase 1 cdc2

Row | IC50 [µM] | SMILES
19 | > 1000 | Oc1cc2cccc[n+]2c2c(Cl)cccc12.[Cl-]

Molecular target: Proto-oncogene tyrosine-protein kinase Src (Homo sapiens, UniProt P12931)
Sequence (P12931 2-536 limits assumed): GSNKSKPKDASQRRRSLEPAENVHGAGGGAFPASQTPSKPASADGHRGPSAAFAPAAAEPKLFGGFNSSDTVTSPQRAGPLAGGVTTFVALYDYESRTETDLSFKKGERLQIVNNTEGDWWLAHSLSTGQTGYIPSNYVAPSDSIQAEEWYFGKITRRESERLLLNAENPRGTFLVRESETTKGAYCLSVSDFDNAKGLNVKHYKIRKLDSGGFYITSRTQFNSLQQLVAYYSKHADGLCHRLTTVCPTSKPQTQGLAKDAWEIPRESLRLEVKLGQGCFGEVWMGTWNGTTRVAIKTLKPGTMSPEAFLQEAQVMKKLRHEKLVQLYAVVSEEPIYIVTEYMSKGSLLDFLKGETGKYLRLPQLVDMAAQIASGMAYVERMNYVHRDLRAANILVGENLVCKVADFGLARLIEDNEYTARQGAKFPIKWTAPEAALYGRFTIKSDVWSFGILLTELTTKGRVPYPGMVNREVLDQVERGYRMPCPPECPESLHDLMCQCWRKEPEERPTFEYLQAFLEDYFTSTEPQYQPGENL
Experiment: Inhibition of p60 c-Src tyrosine kinase (No inhibition)

Row | IC50 | SMILES
20 | Not Active | Oc1cc2cccc[n+]2c2c(Cl)cccc12.[Cl-]
